Publication PMC4388511 (PLoS ONE, 2015)
Where two headings read alike, the source gives them in different places.

Experiments:
[1] = target: T1, serotonin 5-HT2C receptor (Homo sapiens, UniProt P28335); test: facilitation of morphine-induced MOP-YFP endocytosis in HEK293 cells co-expressing 5-HT2C, at […]; type: cell-based
T1 construct: gene HTR2C; c-myc-5-HT2C-Cerulean

[2] = target: T1, serotonin 5-HT2C receptor; test: as above; type: cell-based; remark: listed apart in the source

T1 sequence (P28335 33-458): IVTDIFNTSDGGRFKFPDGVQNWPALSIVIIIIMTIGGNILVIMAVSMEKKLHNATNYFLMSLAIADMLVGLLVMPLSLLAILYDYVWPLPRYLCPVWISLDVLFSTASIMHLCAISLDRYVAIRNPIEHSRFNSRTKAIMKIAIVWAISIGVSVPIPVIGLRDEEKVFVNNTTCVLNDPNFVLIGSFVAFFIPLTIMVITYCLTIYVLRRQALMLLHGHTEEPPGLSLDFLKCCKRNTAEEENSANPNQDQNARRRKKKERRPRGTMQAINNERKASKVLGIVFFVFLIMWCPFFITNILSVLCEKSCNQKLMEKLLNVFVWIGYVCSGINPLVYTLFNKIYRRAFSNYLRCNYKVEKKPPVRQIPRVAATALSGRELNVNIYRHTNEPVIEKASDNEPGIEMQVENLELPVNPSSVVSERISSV
T1 sequence (P35372 whole entry partner): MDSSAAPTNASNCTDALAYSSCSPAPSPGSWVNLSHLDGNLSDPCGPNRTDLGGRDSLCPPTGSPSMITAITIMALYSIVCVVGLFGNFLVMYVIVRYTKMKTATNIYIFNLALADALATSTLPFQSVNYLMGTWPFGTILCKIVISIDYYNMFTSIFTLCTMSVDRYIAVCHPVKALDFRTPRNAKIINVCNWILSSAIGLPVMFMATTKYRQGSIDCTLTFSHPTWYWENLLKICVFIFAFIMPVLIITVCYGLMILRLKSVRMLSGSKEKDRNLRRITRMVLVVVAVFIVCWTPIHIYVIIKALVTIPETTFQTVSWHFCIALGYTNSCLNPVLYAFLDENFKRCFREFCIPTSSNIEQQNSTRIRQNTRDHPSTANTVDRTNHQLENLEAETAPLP

SMILES | Emax (no. vesicles/cell) [1] | Emax (no. vesicles/cell) [2]
COc1cc(CC(C)N)c(OC)cc1I (racemic) [DOI] | 8.18 ± 1.31 vesicles/cell (Emax, with morphine) | 
O=C1Nc2cc(Cl)c(Cl)cc2N2CCNCC12 (centres unmarked) [WAY161503] |  | 9.08 ± 1.88 vesicles/cell (Emax, with morphine)
